Source: patent US11524003B2, “Alpha-amino esters of hydroxypropylthiazolidine carboxamide derivative and salt form, crystal polymorph thereof” (ObsEva S.A., priority 2016, dated 2022)
In brackets after ≈: the same amount, converted by molar mass. Read-outs that look alike come from different tables or passages of the source.

How the values were obtained:
human FP = human FP (Homo sapiens, UniProt P43088); test: IP3 synthesis in FP-transfected HEK293-EBNA cells; settings: tested up to 10 μM
[1] = Solubility in water, FaSSIF and FeSSIF; assay type: physicochemical
Caco-2 cell monolayer = test: Bidirectional permeability across Caco-2 cell monolayers; assay type: in vitro ADME, human
Experimental: (§1) Compound I was dissolved in HBSS buffer (1% DMSO final concentration) at the concentrations of 1.5, 3 and 6 μM. Each concentration/sampling time was run in duplicate well. The test was performed in a gradient pH: the apical compartment (mucosal) was at pH 6.5, the basolateral compartment (serosal) was at pH 7.4.
(§2) Apical to basolateral (A→B, mucosal to serosal) transport: 200 μL of each concentration of compound I was added to the apical compartment and 400 μL of HBSS was added to the basolateral compartment. The plates were incubated at 37° C. An aliquot of the basolateral compartment was sampled after 60 and 120 min (t=60 and t=120). An aliquot of the apical compartment was sampled at the starting time (t=0) and after 120 min. (t=120).
(§3) Basolateral to apical (B→A, serosal to mucosal) transport: 400 μL of each concentration of compound I was added to the basolateral compartment and 200 μL of HBSS was added to the apical compartment. The plates were incubated at 37° C. An aliquot of the apical compartment was sampled after 60 and 120 min (t=60 and t=120). An aliquot of the basolateral compartment was sampled at the starting time (t=0) and after 120 min. (t=120). All samples were analyzed by LC/MS monitoring both compound I and the appearance of compound II.
as §1, with “II” for “I”
as §2, with “II” for “I”
as §3, with “of compound II was added” for “of compound I was added”, “LC/MS monitoring compound II.” for “LC/MS monitoring both compound I and the appearance of compound II.”

[2] = test system: proinflammatory proteins (COX-2, p-cPLA2, p-p65, p-p38, p-ERK); test: Western blot of proinflammatory proteins in human myometrial and amnion biopsies
Experimental: FIG. 79a is a Western blot showing the effects of oxytocin, nolasiban, and a combination thereof on the expression of phosphorylated p65 (p-p65), phosphorylated p38 (p-p38), and phosphorylated extracellular signal-regulated kinase (p-ERK) in N=6 term, pre-laboring myometrial biopsies collected from human female subjects undergoing caesarean section delivery. Samples were either unstimulated (“NS”), stimulated with oxytocin (“OT”), treated with nolasiban at a concentration of 1 μM, or treated with both oxytocin and nolasiban at a concentration of 1 μM for the indicated periods of time. A blot against β-actin was performed as a control. FIG. 79b is a Western blot showing the effects of oxytocin and/or varying concentration of compound II, optionally in combination with nolasiban, on the expression of p-p65, p-p38, and p-ERK in N=6 term, pre-laboring myometrial biopsies collected from human female subjects undergoing caesarean section delivery. Samples were either unstimulated (“NS”), stimulated with oxytocin (“OT”), treated with compound II at a concentration of 3 μM, or treated with both oxytocin and compound II at varying concentrations of compound II, both in the presence and absence of nolasiban at a concentration of 1 μM for the indicated periods of time. A blot against β-actin was performed as a control. […]

human FP, sequence (P43088 whole entry): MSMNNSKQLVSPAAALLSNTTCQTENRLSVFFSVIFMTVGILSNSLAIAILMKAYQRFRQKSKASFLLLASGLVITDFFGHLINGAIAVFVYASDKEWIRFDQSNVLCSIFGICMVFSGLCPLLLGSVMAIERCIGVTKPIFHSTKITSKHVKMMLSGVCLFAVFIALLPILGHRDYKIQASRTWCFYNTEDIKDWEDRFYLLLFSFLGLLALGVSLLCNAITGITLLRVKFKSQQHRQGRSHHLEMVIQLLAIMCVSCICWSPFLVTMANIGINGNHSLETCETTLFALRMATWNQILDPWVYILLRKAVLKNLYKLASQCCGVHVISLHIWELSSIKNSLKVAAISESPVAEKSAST

Compound: O=C(N[C@@H](CCO)c1ccc(F)cc1)[C@@H]1SCCN1S(=O)(=O)c1ccc(-c2ccccc2)cc1 [Compound II, 3-([1,1′-biphenyl]-4-ylsulfonyl)-N-[1-(4-fluorophenyl)-3-hydroxypropyl]-1,3-thiazolidine-2-carboxamide]
- Agonist activity (IP3 synthesis when added alone) (human FP): did not induce any synthesis of IP3
- solubility ([1]; FaSSIF, pH 6.5 (fasted state), read-out: Solubility in FaSSIF pH 6.5): 0.4 µg/mL (≈ 0.799 µM)
- solubility ([1]; FeSSIF, pH 5.0 (fed state), read-out: Solubility in FeSSIF pH 5.0): 10 µg/mL (≈ 20 µM)
- Efflux (Caco-2 cell monolayer): No efflux was detected
- Passive passage through the Caco-2 monolayer (Caco-2 cell monolayer): good passive passage
- Passage apical to basolateral (Caco-2 cell monolayer; A→B): good percentage of passage
- Permeability from basolateral to apical compartment (Caco-2 cell monolayer; B→A): low rate of permeability
- Expression of proinflammatory proteins [2]: capable of reducing the expression of various proinflammatory proteins
